Data set [1] addresses T1, human inducible NO-synthase (Homo sapiens, UniProt P35228).
T1 construct: host or cells: crude cytosolic fraction
The data set can be described thus: Measurement of inducible NO-synthase activity ([3H]arginine conversion). The data set is classed as biochemical. The note with it: crude cytosolic fraction containing human inducible NO-synthase; 0.1 μM arginine; 45 to 60 min at 37° C.; read-out: Inhibition of iNOS activity [measured as −logIC50 (mol/l)] (converted). The protocol: The assay is performed in 96-well microtiter F-plates (Greiner, Frickenhausen, FRG) in a total volume of 100 μl in the presence of 100 nM calmodulin, 226 μM CaCl2, 477 μM MgCl2, 5 μM flavin-adenine-dinucleotide (FAD), 5 μM flavin mononucleotide (FMN), 0.1 mM NADPH, 7 mM glutathione, 10 μM BH4 and 100 mM HEPES pH 7.2. Arginine concentrations are 0.1 μM for enzyme inhibition experiments. 150000 dpm of [^3H]arginine are added to the assay mixture. Enzyme reaction is started by the addition of 4 μg of a crude cytosolic fraction containing human inducible NO-synthase and the reaction mixture is incubated for 45 to 60 min at 37° C. Enzyme reaction is stopped by adding 10 μl of 2M MESbuffer pH 5,0. […] of the incubation mixture are transferred into a MADP N65 filtration microtiter plate (Millipore, Eschborn, FRG) containing already 50 μl of AG-50W-X8 cation exchange resin (Biorad, München, FRG). […] Scintillation plates are counted in a szintillation counter.
For the measurement of inducible NO-synthaseinhibiting potencies of compounds increasing concentrations of inhibitors were included into the incubation mixture. IC50-values were calculated from the percent inhibition at given concentrations by nonlinear least square fitting.

Where a name gives a salt, the structure may show the parent alone.

For `COc1ccnc(CC(C)c2nc3cccnc3[nH]2)c1` (racemic) [Example 1, (R,S)-2-[3-(4-Methoxypyridin-2-yl)prop-2-yl]-3H-imidazo[4,5-b]pyridine hydrochloride], the IC50 in data set [1] was 70.8 nM. On to `COc1ccnc(CC(C)c2nc3cccnc3[nH]2)c1` (racemic) (as salt: hydrochloride) [Example 1, (R,S)-2-[3-(4-Methoxypyridin-2-yl)prop-2-yl]-3H-imidazo[4,5-b]pyridine hydrochloride], for which the melting point (commonly the temperature of the solid-liquid transition) lay within 61 to 64 °C.

The values are drawn from patent US7329677B2, “Imidazo(4,5-b)pyridine-derivatives as inducible no-synthase inhibitors” (Altana Pharma AG, priority 2003, dated 2008).
